Results published in the kinase profiling compilation of Christmann-Franck et al. (2016).

What was measured:
Assay in all cases: radiometric filter-binding kinase assay, Kinase HotSpot
Settings in all cases: compound 0.5 µM; ATP 10 µM
NTRK3 (human) = NTRK3 (human) (UniProt Q16288)
MYLK (human) = MYLK (human) (UniProt Q15746)
DCLK2 (human) = DCLK2 (human) (UniProt Q8N568)
STK4 (human) = STK4 (human) (UniProt Q13043)
MAP4K4 (human) = MAP4K4 (human) (UniProt O95819)
CDK6 CCND1 (human) = CDK6 CCND1 (human) (UniProt Q00534+P24385)
Sequence of CDK6 CCND1 (human) (P24385 whole entry, looked up): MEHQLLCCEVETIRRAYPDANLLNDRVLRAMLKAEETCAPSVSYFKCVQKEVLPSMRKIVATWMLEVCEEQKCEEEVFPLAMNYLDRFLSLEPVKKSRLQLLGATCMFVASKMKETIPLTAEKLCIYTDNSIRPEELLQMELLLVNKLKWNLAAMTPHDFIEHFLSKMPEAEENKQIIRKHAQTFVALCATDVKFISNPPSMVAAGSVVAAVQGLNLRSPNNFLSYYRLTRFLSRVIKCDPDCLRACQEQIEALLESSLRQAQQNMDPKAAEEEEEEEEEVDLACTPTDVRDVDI
Sequence of CDK6 CCND1 (human) (Q00534 whole entry, looked up): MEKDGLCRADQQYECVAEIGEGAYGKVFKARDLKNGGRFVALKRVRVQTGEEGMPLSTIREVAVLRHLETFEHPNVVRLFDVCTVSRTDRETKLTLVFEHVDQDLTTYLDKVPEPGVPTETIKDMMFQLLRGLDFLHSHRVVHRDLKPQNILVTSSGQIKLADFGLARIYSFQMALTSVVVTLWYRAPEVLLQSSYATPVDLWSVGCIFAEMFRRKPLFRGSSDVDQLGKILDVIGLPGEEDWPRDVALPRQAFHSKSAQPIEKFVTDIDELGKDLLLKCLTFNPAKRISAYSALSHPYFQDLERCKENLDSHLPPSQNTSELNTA

SRPK2 (human) = SRPK2 (human) (UniProt P78362)
CLK2 (human) = CLK2 (human) (UniProt P49760)
PRKD2 (human) = PRKD2 (human) (UniProt Q9BZL6)
RPS6KA5 KD2 (human) = RPS6KA5 KD2 (human) (UniProt O75582)
MAP3K9 (human) = MAP3K9 (human) (UniProt P80192)
STK39 (human) = STK39 (human) (UniProt Q9UEW8)
MAPK13 (human) = MAPK13 (human) (UniProt O15264)
WNK2 (human) = WNK2 (human) (UniProt Q9Y3S1)
PRKCB2 (human) = PRKCB2 (human) (UniProt P05771)
NTRK2 (human) = NTRK2 (human) (UniProt Q16620)
STK11 (human) = STK11 (human) (UniProt Q15831)
PAK1 (human) = PAK1 (human) (UniProt Q13153)
MINK1 (human) = MINK1 (human) (UniProt Q8N4C8)
PRKCG (human) = PRKCG (human) (UniProt P05129)
NLK (human) = NLK (human) (UniProt Q9UBE8)
STK17A (human) = STK17A (human) (UniProt Q9UEE5)
MUSK (human) = MUSK (human) (UniProt O15146)
ADRBK2 (human) = ADRBK2 (human) (UniProt P35626)
MAP3K2 (human) = MAP3K2 (human) (UniProt Q9Y2U5)
ERBB2 (human) = ERBB2 (human) (UniProt P04626)
Sequence of ERBB2 (human) (P04626 whole entry, looked up): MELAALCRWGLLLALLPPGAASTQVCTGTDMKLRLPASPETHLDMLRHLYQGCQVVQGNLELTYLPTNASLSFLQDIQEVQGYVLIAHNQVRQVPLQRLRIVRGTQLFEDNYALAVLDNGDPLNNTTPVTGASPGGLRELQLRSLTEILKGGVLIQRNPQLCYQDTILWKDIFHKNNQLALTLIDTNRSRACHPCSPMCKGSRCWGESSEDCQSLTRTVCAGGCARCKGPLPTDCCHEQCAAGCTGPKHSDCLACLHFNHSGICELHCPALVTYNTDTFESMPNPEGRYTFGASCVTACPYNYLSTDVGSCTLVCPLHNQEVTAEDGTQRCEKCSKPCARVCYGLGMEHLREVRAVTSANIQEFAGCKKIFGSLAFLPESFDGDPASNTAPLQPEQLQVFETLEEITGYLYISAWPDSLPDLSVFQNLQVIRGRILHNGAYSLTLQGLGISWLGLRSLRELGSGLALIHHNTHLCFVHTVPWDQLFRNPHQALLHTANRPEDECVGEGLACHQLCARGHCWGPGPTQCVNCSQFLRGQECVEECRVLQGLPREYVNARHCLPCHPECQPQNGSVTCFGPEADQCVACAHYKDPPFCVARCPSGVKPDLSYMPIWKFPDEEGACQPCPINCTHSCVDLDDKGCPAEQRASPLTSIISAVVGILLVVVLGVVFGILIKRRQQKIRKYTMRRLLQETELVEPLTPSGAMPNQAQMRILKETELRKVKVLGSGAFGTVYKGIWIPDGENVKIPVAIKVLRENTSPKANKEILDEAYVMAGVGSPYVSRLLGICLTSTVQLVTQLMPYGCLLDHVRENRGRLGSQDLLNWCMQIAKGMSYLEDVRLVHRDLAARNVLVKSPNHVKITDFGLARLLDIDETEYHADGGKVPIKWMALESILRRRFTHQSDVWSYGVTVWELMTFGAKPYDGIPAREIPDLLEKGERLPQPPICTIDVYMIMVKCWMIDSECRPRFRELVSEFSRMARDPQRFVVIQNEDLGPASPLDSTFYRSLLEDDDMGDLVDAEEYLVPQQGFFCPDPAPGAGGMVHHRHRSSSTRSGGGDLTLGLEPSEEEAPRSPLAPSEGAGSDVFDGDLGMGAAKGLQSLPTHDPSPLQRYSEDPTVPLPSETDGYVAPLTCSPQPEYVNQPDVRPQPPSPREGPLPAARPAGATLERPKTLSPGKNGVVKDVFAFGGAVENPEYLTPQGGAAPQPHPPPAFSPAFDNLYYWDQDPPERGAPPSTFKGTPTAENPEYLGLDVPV

DSTYK (human) = DSTYK (human) (UniProt Q6XUX3)
Sequence of DSTYK (human) (Q6XUX3 whole entry, looked up): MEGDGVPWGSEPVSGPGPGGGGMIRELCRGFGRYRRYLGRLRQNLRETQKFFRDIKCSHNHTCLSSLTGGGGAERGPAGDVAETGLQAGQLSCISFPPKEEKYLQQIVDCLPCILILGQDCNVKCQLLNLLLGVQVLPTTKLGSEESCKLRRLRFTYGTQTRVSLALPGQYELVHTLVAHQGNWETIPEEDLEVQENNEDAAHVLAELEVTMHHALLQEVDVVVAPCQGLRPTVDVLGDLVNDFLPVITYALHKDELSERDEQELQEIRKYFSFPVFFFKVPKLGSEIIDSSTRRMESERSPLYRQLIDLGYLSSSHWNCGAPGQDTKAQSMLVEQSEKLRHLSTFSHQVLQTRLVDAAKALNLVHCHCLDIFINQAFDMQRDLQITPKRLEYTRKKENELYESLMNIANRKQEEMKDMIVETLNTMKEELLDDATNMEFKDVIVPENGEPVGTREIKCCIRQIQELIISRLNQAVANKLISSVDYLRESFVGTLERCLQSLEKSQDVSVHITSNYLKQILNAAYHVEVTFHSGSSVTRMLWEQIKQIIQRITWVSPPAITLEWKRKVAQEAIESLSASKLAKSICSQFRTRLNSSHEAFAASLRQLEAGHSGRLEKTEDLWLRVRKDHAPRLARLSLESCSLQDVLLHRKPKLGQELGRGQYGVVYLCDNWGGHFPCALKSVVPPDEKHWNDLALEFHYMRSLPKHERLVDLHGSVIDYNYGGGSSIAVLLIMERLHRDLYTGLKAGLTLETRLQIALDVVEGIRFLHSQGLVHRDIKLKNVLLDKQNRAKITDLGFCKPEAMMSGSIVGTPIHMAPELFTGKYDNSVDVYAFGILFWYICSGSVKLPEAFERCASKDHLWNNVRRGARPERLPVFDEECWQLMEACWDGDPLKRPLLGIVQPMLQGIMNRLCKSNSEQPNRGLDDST

STK38 (human) = STK38 (human) (UniProt Q15208)
GRK5 (human) = GRK5 (human) (UniProt P34947)
Sequence of GRK5 (human) (P34947 whole entry, looked up): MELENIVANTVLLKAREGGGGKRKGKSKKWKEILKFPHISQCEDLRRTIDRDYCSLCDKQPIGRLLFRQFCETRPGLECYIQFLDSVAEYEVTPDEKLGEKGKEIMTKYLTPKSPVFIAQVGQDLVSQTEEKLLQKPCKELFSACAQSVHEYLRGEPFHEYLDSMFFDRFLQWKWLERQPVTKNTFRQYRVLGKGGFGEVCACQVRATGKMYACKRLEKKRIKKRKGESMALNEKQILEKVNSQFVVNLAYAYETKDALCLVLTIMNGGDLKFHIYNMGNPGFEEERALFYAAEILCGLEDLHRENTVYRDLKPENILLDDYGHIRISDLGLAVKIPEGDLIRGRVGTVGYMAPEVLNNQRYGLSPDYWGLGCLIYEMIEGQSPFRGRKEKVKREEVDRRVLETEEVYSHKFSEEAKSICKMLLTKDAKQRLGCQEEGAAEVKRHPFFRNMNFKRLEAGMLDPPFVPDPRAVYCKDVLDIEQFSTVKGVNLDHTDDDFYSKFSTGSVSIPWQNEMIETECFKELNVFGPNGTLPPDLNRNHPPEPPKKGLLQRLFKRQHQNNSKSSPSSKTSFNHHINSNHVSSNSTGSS

MAP3K7 TAB1 (human) = MAP3K7 TAB1 (human) (UniProt O43318+Q15750)
DAPK2 (human) = DAPK2 (human) (UniProt Q9UIK4)
TEK (human) = TEK (human) (UniProt Q02763)
AKT3 (human) = AKT3 (human) (UniProt Q9Y243)
Sequence of AKT3 (human) (Q9Y243 whole entry, looked up): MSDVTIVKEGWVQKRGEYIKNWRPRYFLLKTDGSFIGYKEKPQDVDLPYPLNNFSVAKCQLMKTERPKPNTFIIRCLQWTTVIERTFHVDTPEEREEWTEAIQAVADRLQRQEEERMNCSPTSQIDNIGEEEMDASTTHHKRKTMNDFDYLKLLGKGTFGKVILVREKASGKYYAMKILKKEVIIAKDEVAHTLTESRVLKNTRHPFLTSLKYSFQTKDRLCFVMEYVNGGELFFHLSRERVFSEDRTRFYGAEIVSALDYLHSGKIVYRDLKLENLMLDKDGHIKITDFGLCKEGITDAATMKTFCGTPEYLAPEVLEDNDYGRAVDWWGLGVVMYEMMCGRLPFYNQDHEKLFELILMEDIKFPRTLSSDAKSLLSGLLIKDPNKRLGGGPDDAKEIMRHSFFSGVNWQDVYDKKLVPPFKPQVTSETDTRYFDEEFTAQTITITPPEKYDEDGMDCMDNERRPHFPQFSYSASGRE

EPHA1 (human) = EPHA1 (human) (UniProt P21709)
MARK1 (human) = MARK1 (human) (UniProt Q9P0L2)
SRC (human) = SRC (human) (UniProt P12931)
LCK (human) = LCK (human) (UniProt P06239)
INSR (human) = INSR (human) (UniProt P06213)
CAMK2B (human) = CAMK2B (human) (UniProt Q13554)
IGF1R (human) = IGF1R (human) (UniProt P08069)
MET (human) = MET (human) (UniProt P08581)
MAP3K11 (human) = MAP3K11 (human) (UniProt Q16584)
Sequence of MAP3K11 (human) (Q16584 whole entry, looked up): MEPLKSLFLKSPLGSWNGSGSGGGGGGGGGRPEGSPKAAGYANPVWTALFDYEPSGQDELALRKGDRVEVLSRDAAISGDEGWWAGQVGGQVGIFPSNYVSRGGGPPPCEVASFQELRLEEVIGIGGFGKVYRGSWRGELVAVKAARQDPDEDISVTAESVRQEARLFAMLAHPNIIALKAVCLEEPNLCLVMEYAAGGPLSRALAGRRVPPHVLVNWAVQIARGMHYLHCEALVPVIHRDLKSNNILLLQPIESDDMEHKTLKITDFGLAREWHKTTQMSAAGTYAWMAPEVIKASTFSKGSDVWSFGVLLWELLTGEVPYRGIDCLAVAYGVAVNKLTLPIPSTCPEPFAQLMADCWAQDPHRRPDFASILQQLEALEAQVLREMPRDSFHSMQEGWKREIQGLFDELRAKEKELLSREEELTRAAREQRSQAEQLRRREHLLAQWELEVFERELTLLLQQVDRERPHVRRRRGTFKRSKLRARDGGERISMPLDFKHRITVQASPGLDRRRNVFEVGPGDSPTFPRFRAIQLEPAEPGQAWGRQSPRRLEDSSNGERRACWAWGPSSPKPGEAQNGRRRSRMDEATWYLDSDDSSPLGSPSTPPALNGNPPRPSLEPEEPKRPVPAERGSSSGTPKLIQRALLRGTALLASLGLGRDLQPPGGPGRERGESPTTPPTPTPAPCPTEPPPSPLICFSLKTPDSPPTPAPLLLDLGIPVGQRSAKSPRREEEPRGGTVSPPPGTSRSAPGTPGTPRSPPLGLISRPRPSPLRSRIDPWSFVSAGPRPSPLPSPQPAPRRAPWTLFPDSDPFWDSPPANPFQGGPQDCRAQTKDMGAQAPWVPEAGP

SMILES: Cc1ccc(Nc2nccc(N(C)c3ccc4c(C)n(C)nc4c3)n2)cc1S(N)(=O)=O
- residual activity (NTRK3 (human)): 87.8%
- residual activity (MYLK (human)): 93%
- residual activity (DCLK2 (human)): 102%
- residual activity (STK4 (human)): 98.4%
- residual activity (MAP4K4 (human)): 77.4%
- residual activity (CDK6 CCND1 (human)): 96.5%
- residual activity (SRPK2 (human)): 104%
- residual activity (CLK2 (human)): 90.9%
- residual activity (PRKD2 (human)): 90.8%
- residual activity (RPS6KA5 KD2 (human)): 101%
- residual activity (MAP3K9 (human)): 10.6%
- residual activity (STK39 (human)): 95.9%
- residual activity (MAPK13 (human)): 94.6%
- residual activity (WNK2 (human)): 98.2%
- residual activity (PRKCB2 (human)): 96.7%
- residual activity (NTRK2 (human)): 91.5%
- residual activity (STK11 (human)): 92.1%
- residual activity (PAK1 (human)): 89.1%
- residual activity (MINK1 (human)): 73.7%
- residual activity (PRKCG (human)): 93.5%
- residual activity (NLK (human)): 69%
- residual activity (STK17A (human)): 95.9%
- residual activity (MUSK (human)): 95.1%
- residual activity (ADRBK2 (human)): 99.3%
- residual activity (MAP3K2 (human)): 110%
- residual activity (ERBB2 (human)): 103%
- residual activity (DSTYK (human)): 94.3%
- residual activity (STK38 (human)): 100%
- residual activity (GRK5 (human)): 99.6%
- residual activity (MAP3K7 TAB1 (human)): 90.6%
- residual activity (DAPK2 (human)): 93%
- residual activity (TEK (human)): 69.3%
- residual activity (AKT3 (human)): 93.3%
- residual activity (EPHA1 (human)): 85%
- residual activity (MARK1 (human)): 99.9%
- residual activity (SRC (human)): 70.7%
- residual activity (LCK (human)): 43.3%
- residual activity (INSR (human)): 107%
- residual activity (CAMK2B (human)): 95.5%

SMILES: N#CC(C#N)=C(N)/C(C#N)=C/c1ccc(O)cc1
- residual activity (NTRK3 (human)): 95.5%
- residual activity (MYLK (human)): 101%
- residual activity (DCLK2 (human)): 101%
- residual activity (STK4 (human)): 99.1%
- residual activity (MAP4K4 (human)): 91.2%
- residual activity (CDK6 CCND1 (human)): 91.3%
- residual activity (SRPK2 (human)): 88.8%
- residual activity (CLK2 (human)): 100%
- residual activity (IGF1R (human)): 90.6%
- residual activity (MET (human)): 117%
- residual activity (PRKD2 (human)): 100%
- residual activity (RPS6KA5 KD2 (human)): 96.7%
- residual activity (MAP3K9 (human)): 94.4%
- residual activity (STK39 (human)): 90.3%
- residual activity (MAPK13 (human)): 103%
- residual activity (PRKCB2 (human)): 111%
- residual activity (NTRK2 (human)): 95.4%
- residual activity (STK11 (human)): 96.5%
- residual activity (PAK1 (human)): 90.9%
- residual activity (MINK1 (human)): 97.7%
- residual activity (PRKCG (human)): 105%
- residual activity (NLK (human)): 96.7%
- residual activity (STK17A (human)): 72.8%
- residual activity (MUSK (human)): 103%
- residual activity (MAP3K11 (human)): 94.8%
- residual activity (ADRBK2 (human)): 96.7%
- residual activity (MAP3K2 (human)): 102%
- residual activity (ERBB2 (human)): 90.1%
- residual activity (DSTYK (human)): 92.9%
- residual activity (STK38 (human)): 96.9%
- residual activity (GRK5 (human)): 113%
- residual activity (MAP3K7 TAB1 (human)): 94.8%
- residual activity (DAPK2 (human)): 95.7%
- residual activity (TEK (human)): 104%
- residual activity (AKT3 (human)): 95.8%
- residual activity (EPHA1 (human)): 103%
- residual activity (MARK1 (human)): 111%
- residual activity (SRC (human)): 92.3%
- residual activity (LCK (human)): 95.1%
- residual activity (INSR (human)): 94.2%
- residual activity (CAMK2B (human)): 93.3%

SMILES: CCOC(=O)c1c(C)[nH]c(/C=C2\C(=O)Nc3ccccc32)c1C
- residual activity (NTRK3 (human)): 27.9%
- residual activity (MYLK (human)): 94.8%
- residual activity (DCLK2 (human)): 94.7%
- residual activity (STK4 (human)): 83.4%
- residual activity (MAP4K4 (human)): 64.5%
- residual activity (CDK6 CCND1 (human)): 89.7%
- residual activity (SRPK2 (human)): 92.3%
- residual activity (CLK2 (human)): 86%
- residual activity (IGF1R (human)): 79.5%
- residual activity (MET (human)): 87.4%
- residual activity (PRKD2 (human)): 97.1%
- residual activity (RPS6KA5 KD2 (human)): 91.8%
- residual activity (MAP3K9 (human)): 61.6%
- residual activity (STK39 (human)): 85.1%
- residual activity (MAPK13 (human)): 98.3%
- residual activity (WNK2 (human)): 100%
- residual activity (PRKCB2 (human)): 91.5%
- residual activity (NTRK2 (human)): 66.6%
- residual activity (STK11 (human)): 85.2%
- residual activity (PAK1 (human)): 99.9%
- residual activity (MINK1 (human)): 88.9%
- residual activity (PRKCG (human)): 91.9%
- residual activity (NLK (human)): 94.8%
- residual activity (STK17A (human)): 81.4%
- residual activity (MUSK (human)): 88.7%
- residual activity (MAP3K11 (human)): 47%
- residual activity (ADRBK2 (human)): 94.7%
- residual activity (MAP3K2 (human)): 108%
- residual activity (ERBB2 (human)): 101%
- residual activity (DSTYK (human)): 90.8%
- residual activity (STK38 (human)): 101%
- residual activity (GRK5 (human)): 102%
- residual activity (MAP3K7 TAB1 (human)): 85.8%
- residual activity (DAPK2 (human)): 96.3%
- residual activity (AKT3 (human)): 103%
- residual activity (EPHA1 (human)): 90.8%
- residual activity (MARK1 (human)): 90.8%
- residual activity (SRC (human)): 93.8%
- residual activity (LCK (human)): 88.2%
- residual activity (INSR (human)): 90.6%
- residual activity (CAMK2B (human)): 96%

SMILES: Oc1cccc(-c2nc(N3CCOCC3)c3oc4ncccc4c3n2)c1
- residual activity (NTRK3 (human)): 91.1%
- residual activity (MYLK (human)): 77.1%
- residual activity (DCLK2 (human)): 102%
- residual activity (STK4 (human)): 93.3%
- residual activity (MAP4K4 (human)): 91.4%
- residual activity (CDK6 CCND1 (human)): 95.6%
- residual activity (SRPK2 (human)): 97.3%
- residual activity (CLK2 (human)): 88%
- residual activity (IGF1R (human)): 97.1%
- residual activity (MET (human)): 97.8%
- residual activity (PRKD2 (human)): 93.8%
- residual activity (RPS6KA5 KD2 (human)): 86.5%
- residual activity (MAP3K9 (human)): 103%
- residual activity (STK39 (human)): 105%
- residual activity (MAPK13 (human)): 97.4%
- residual activity (WNK2 (human)): 119%
- residual activity (PRKCB2 (human)): 102%
- residual activity (NTRK2 (human)): 90.2%
- residual activity (STK11 (human)): 86.4%
- residual activity (PAK1 (human)): 97.6%
- residual activity (MINK1 (human)): 96%
- residual activity (PRKCG (human)): 102%
- residual activity (NLK (human)): 97.4%
- residual activity (STK17A (human)): 93.8%
- residual activity (MUSK (human)): 87.8%
- residual activity (MAP3K11 (human)): 96.5%
- residual activity (ADRBK2 (human)): 110%
- residual activity (MAP3K2 (human)): 103%
- residual activity (ERBB2 (human)): 105%
- residual activity (DSTYK (human)): 96.1%
- residual activity (STK38 (human)): 99%
- residual activity (MAP3K7 TAB1 (human)): 97.4%
- residual activity (DAPK2 (human)): 117%
- residual activity (TEK (human)): 87.7%
- residual activity (AKT3 (human)): 99%
- residual activity (EPHA1 (human)): 87.8%
- residual activity (MARK1 (human)): 97.6%
- residual activity (SRC (human)): 97.2%
- residual activity (LCK (human)): 98%
- residual activity (INSR (human)): 98.6%
- residual activity (CAMK2B (human)): 98.2%

SMILES: COc1cc2ncnc(Nc3cccc(Cl)c3)c2cc1OC
- residual activity (NTRK3 (human)): 86.3%
- residual activity (MYLK (human)): 89%
- residual activity (DCLK2 (human)): 94.7%
- residual activity (STK4 (human)): 92%
- residual activity (MAP4K4 (human)): 68.1%
- residual activity (CDK6 CCND1 (human)): 92.5%
- residual activity (SRPK2 (human)): 88.2%
- residual activity (CLK2 (human)): 89.6%
- residual activity (IGF1R (human)): 75.9%
- residual activity (MET (human)): 75.5%
- residual activity (PRKD2 (human)): 92.3%
- residual activity (RPS6KA5 KD2 (human)): 97.8%
- residual activity (MAP3K9 (human)): 82.8%
- residual activity (STK39 (human)): 97%
- residual activity (MAPK13 (human)): 99.8%
- residual activity (WNK2 (human)): 98.6%
- residual activity (PRKCB2 (human)): 95.5%
- residual activity (NTRK2 (human)): 93.3%
- residual activity (STK11 (human)): 96.8%
- residual activity (PAK1 (human)): 89.3%
- residual activity (MINK1 (human)): 83.1%
- residual activity (PRKCG (human)): 105%
- residual activity (NLK (human)): 83.1%
- residual activity (STK17A (human)): 95.4%
- residual activity (MUSK (human)): 88.3%
- residual activity (MAP3K11 (human)): 84.1%
- residual activity (ADRBK2 (human)): 99.9%
- residual activity (MAP3K2 (human)): 98.2%
- residual activity (ERBB2 (human)): 22.5%
- residual activity (DSTYK (human)): 90.8%
- residual activity (STK38 (human)): 104%
- residual activity (GRK5 (human)): 105%
- residual activity (MAP3K7 TAB1 (human)): 96.9%
- residual activity (DAPK2 (human)): 93.3%
- residual activity (TEK (human)): 88.6%
- residual activity (AKT3 (human)): 98.3%
- residual activity (EPHA1 (human)): 81.7%
- residual activity (SRC (human)): 71.9%
- residual activity (LCK (human)): 74.9%
- residual activity (INSR (human)): 77.6%
- residual activity (CAMK2B (human)): 91.2%
